Experiments:
STAT3 = STAT3 reporter gene assay (luciferase), LNCaP stable cell line pSTAT3-TA-luc, IL-6 stimulation; format: cell-based, human; settings: Homo sapiens
Summary of the method: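 LNCaP cells stably carrying pSTAT3-TA-luc were plated 24 h in 3% DCC-FBS medium, then given compound followed by IL-6 (10 ng/mL final) for 24 h at 37 °C. Luciferase was read from lysates, with CellTiter-Glo viability on a duplicate plate. Stimulated 0.1% DMSO wells served as uninhibited control.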

STAT1 = STAT1 reporter gene assay (luciferase), U2OS stable cell line pGL4-STAT1-TA-luc, IFN-γ stimulation; format: cell-based, human; settings: Homo sapiens, IFN-γ 50 ng/mL, 8 hours, read-out: IC50 (μM) pSTAT1
Summary of the method: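 U2OS cells stably carrying a STAT1-driven luciferase reporter were treated with serially diluted compounds plus IFN-γ (50 ng/mL final) for 8 h at 37 °C in 10% FBS medium. Luciferase read after lysis; parallel plate assessed for cytotoxicity by CellTiter-Glo.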

[1] = tested on: LNCaP prostate cancer cell line; assay: Cell growth inhibition assay, LNCaP (CellTiter-Glo); format: cell-based; settings: Homo sapiens; LNCaP, 10,000 cells/well, medium with 10 ng/mL IL-6, 96 hours
Protocol: (§1) The inhibitory effects of the compounds of the present invention against the growth of cancer cells were evaluated as shown below. The cancer cell lines including prostate cancer cell lines (LNCaP, DU-145), stomach cancer cell line (NCI-N87), and breast cancer cell lines (MDA-MB-468) were cultured under the protocol provided by each supplier. A medium supplemented with 10 ng/mL of IL-6 was used for LNCaP, a prostate cancer cell line, when treated with a drug. Each type of cells to be used in experiments was sub-cultured in a 96-well plate by counting the exact number of cells using Tali™ Image-based Cytometer (Life Technologies). In a 96-well plate, DU-145 was employed with 3,000 cells/well; NCI-N87 was employed with 5,000 cells/well; and LNCaP and MDA-MB-468 were employed with 10,000 cells/well. The cells were treated with the compounds listed in Examples which were diluted in various concentrations. Upon completion of the compounds treatment, LNCaP, DU-145, NCI-N87 cells were cultured at 37° C. under 5% CO2 for 96 hours, and MDA-MB-468 cells were cultured at 37° C. in air for 96 hours. Subsequently, the cells were observed under microscope and drug precipitation and particular findings were investigated and recorded. And then, the 96-well plate was placed at room temperature for 30 minutes, added with 20 pt/well of CellTiter-Glo solution (Cat No. G7573, Promega) and shaken for 10 minutes, followed by being subjected to the measurement using PHERAstar™ microplate reader (BMG LABTECH) according to the supplier's general luminometer protocol. Wells where only culture liquid added without cell plating were used as a negative control, whereas wells where culture liquid containing 0.1% DMSO instead of the compounds listed in Examples were used as a positive control.

[2] = tested on: DU-145 prostate cancer cell line; assay: Cell growth inhibition assay, DU-145 (CellTiter-Glo); format: cell-based; settings: Homo sapiens; DU-145, 3,000 cells/well, 96 hours
Protocol: as §1

Structure (SMILES)	IC50 (STAT3) [µM]	IC50 (STAT1) [µM]	IC50 [1] [µM]	IC50 [2] [µM]
CC(C)(c1ccc2sc(C(=O)Nc3cc(Cl)cc(Oc4ccc(Cl)cc4)n3)cc2c1)S(C)(=O)=O [Example 66, N-(4-chloro-6-(4-chlorophenoxy)pyridin-2-yl)-5-(2-(methylsulfonyl)propan-2-yl)benzo[b]thiophene-2-carboxamide]	0.18	> 50	0.26	0.17
CC(C)(c1cc2cc(C(=O)Nc3cc(Cl)cc(Oc4ccc(Cl)cc4)c3)sc2cc1F)S(C)(=O)=O [Example 44, N-(3-chloro-5-(4-chlorophenoxy)phenyl)-6-fluoro-5-(2-(methylsulfonyl)propan-2-yl)benzo[b]thiophene-2-carboxamide]	0.019	> 50	0.039	0.019
CC(C)(c1ccc2sc(C(=O)Nc3cc(Cl)cc(Oc4ccc(F)cc4)c3)cc2c1)S(C)(=O)=O [Example 43, N-(3-chloro-5-(4-fluorophenoxy)phenyl)-5-(2-(methylsulfonyl)propan-2-yl)benzo[b]thiophene-2-carboxamide]	0.023	> 50	0.032	0.011
CN(c1ccc(Cl)cc1)c1cc(Cl)cc(NC(=O)c2cc3cc(C(C)(C)S(C)(=O)=O)ccc3s2)c1 [Example 99, N-(3-chloro-5-((4-chlorophenyl)(methyl)amino)phenyl)-5-(2-(methylsulfonyl)propan-2-yl)benzo[b]thiophene-2-carboxamide]	0.11	> 50	0.14	0.046
CC(C)(c1ccc(F)cc1)c1cc(Cl)cc(NC(=O)c2cc3cc(C(C)(C)S(C)(=O)=O)ccc3s2)c1 [Example 18, N-(3-chloro-5-(2-(4-fluorophenyl)propan-2-yl)phenyl)-5-(2-(methylsulfonyl)propan-2-yl)benzo[b]thiophene-2-carboxamide]	0.031	> 50	0.056	0.023
COc1ccc(C(C)(C)c2cc(Cl)cc(NC(=O)c3cc4cc(C(C)(C)S(C)(=O)=O)ccc4s3)c2)cc1 [Example 17, N-(3-chloro-5-(2-(4-methoxyphenyl)propan-2-yl)phenyl)-5-(2-(methylsulfonyl)propan-2-yl)benzo[b]thiophene-2-carboxamide]	0.045	> 50	0.08	0.039
O=C(Nc1cc(Cl)cc(Oc2ccc(Cl)cc2)c1)c1cc2cc(CS(=O)(=O)C(F)(F)F)ccc2s1 [Example 42, N-(3-chloro-5-(4-chlorophenoxy)phenyl)-5-(((trifluoromethyl)sulfonyl)methyl)benzo[b]thiophene-2-carboxamide]	1.25	> 50	> 1.1	> 1.1
CC(C)(c1ccc(Cl)cc1)c1cc(Cl)cc(NC(=O)c2cc3cc(CS(=O)(=O)C(F)(F)F)ccc3s2)c1 [Example 24, N-(3-chloro-5-(2-(4-chlorophenyl)propan-2-yl)phenyl)-5-(((trifluoromethyl)sulfonyl)methyl)benzo[b]thiophene-2-carboxamide]	0.9	> 50	> 1.1	> 1.1
CC(C)(c1ccc2sc(C(=O)Nc3cc(Cl)cc(Oc4ccc(OC(F)(F)F)cc4)c3)cc2c1)S(C)(=O)=O [Example 37, N-(3-chloro-5-(4-(trifluoromethoxy)phenoxy)phenyl)-5-(2-(methylsulfonyl)propan-2-yl)benzo[b]thiophene-2-carboxamide]	0.015	> 50	0.01	0.0071
CC(C)(c1ccc2sc(C(=O)Nc3cc(Cl)cc(Oc4ccc(Cl)cc4)c3)cc2c1)S(C)(=O)=O [Example 49, N-(3-chloro-5-(4-chlorophenoxy)phenyl)-5-(2-(methylsulfonyl)propan-2-yl)benzo[b]thiophene-2-carboxamide]	0.019	> 50	0.019	0.013
CC(C)(c1ccc(Cl)cc1)c1cc(Cl)cc(NC(=O)c2cc3cc(C(C)(C)S(C)(=O)=O)ccc3s2)c1 [Example 22, N-(3-chloro-5-(2-(4-chlorophenyl)propan-2-yl)phenyl)-5-(2-(methylsulfonyl)propan-2-yl)benzo[b]thiophene-2-carboxamide]	0.015	> 50	0.024	0.014
CC(C)(c1ccc2cc(C(=O)Nc3cc(Cl)cc(Oc4ccc(Cl)cc4)c3)sc2c1)S(C)(=O)=O [Example 58, N-(3-chloro-5-(4-chlorophenoxy)phenyl)-6-(2-(methylsulfonyl)propan-2-yl)benzo[b]thiophene-2-carboxamide]	0.86	> 50	0.24	0.11
CC1(C)CC(Oc2cc(Cl)cc(NC(=O)c3cc4cc(C(C)(C)S(C)(=O)=O)ccc4s3)c2)CC(C)(C)N1 [Example 92, N-(3-chloro-5-((2,2,6,6-tetramethylpiperidin-4-yl)oxy)phenyl)-5-(2-(methylsulfonyl)propan-2-yl)benzo[b]thiophene-2-carboxamide]	5.5	9.6	> 1.1	> 1.1
CC(C)(c1ccc2sc(C(=O)Nc3cc(Cl)cc(Oc4ccc(F)c(F)c4)c3)cc2c1)S(C)(=O)=O [Example 52, N-(3-chloro-5-(3,4-difluorophenoxy)phenyl)-5-(2-(methylsulfonyl)propan-2-yl)benzo[b]thiophene-2-carboxamide]	0.025	> 50	0.022	0.015
CC(C)(c1ccc2sc(C(=O)Nc3cc(Cl)cc(Oc4ccc(Cl)c(F)c4)c3)cc2c1)S(C)(=O)=O [Example 54, N-(3-chloro-5-(4-chloro-3-fluorophenoxy)phenyl)-5-(2-(methylsulfonyl)propan-2-yl)benzo[b]thiophene-2-carboxamide]	0.014	> 50	0.029	0.0059
CS(=O)(=O)C1(c2ccc3sc(C(=O)Nc4cc(Cl)cc(Oc5ccc(Cl)cc5)c4)cc3c2)CCOCC1 [Example 56, N-(3-chloro-5-(4-chlorophenoxy)phenyl)-5-(4-(methylsulfonyl)tetrahydro-2H-pyran-4-yl)benzo[b]thiophene-2-carboxamide]	3.3	> 50	> 1.1	> 1.1
CC(C)(c1ccc(Cl)cc1)c1cc(NC(=O)c2cc3cc(C(C)(C)S(C)(=O)=O)ccc3s2)[nH]n1 [Example 89, N-(3-(2-(4-chlorophenyl)propan-2-yl)-1H-pyrazol-5-yl)-5-(2-(methylsulfonyl)propan-2-yl)benzo[b]thiophene-2-carboxamide]	0.14	> 50	0.24	0.11
CC(C)Oc1cc(OC(F)(F)F)cc(C(C)(C)c2cc(Cl)cc(NC(=O)c3cc4cc(CS(C)(=O)=O)ccc4s3)c2)c1 [Example 16, N-(3-chloro-5-(2-(3-isopropoxy-5-(trifluoromethoxy)phenyl)propan-2-yl)phenyl)-5-((methylsulfonyl)methyl)benzo[b]thiophene-2-carboxamide]	0.0057	> 50	0.0022	0.0018
